# Active and inactive are the calls of the source. No cut-off for these calls is given here.
# How the values were obtained:
# [1] = Selectivity index, ratio of compound concentration showing <20 to <30% hemolysis in mouse RBC to MIC for fluconazole/ITC-resistant Candida albicans ATCC MYA-1237; assay type: toxicity; conditions: mouse red blood cells (RBC), read-out: Selectivity Index
# [2] = Selectivity index, ratio of CC50 for human A549 cells to MIC for Aspergillus terreus ATCC MYA-3633; assay type: toxicity; conditions: read-out: Selectivity Index
# [3] = Selectivity index, ratio of compound concentration showing <20 to <30% hemolysis in mouse RBC to MIC for fluconazole/ITC-susceptible Candida albicans ATCC MYA-2310; assay type: toxicity; conditions: mouse red blood cells (RBC), read-out: Selectivity Index
# [4] = Hemolytic activity in mouse RBC at 1.95 ug/ml after 1 hr relative to control; assay type: ADME, cell-based, Erythrocyte; conditions: red blood cells (erythrocytes), read-out: Activity
# [5] = Selectivity index, ratio of CC50 for human A549 cells to MIC for fluconazole/ITC-susceptible Candida albicans ATCC MYA-2876; assay type: toxicity; conditions: read-out: Selectivity Index
# [6] = Selectivity index, ratio of compound concentration showing <20 to <30% hemolysis in mouse RBC to MIC for Candida krusei ATCC 6258; assay type: toxicity; conditions: mouse red blood cells (RBC), read-out: Selectivity Index
# Candida albicans [7] = test: Antifungal activity against fluconazole/ITC-resistant Candida albicans ATCC MYA-1237 measured after 48 hrs by CLSI M27-A3 protocol based method; assay type: functional; conditions: ATCC MYA-1237, 48 h
# [8] = Selectivity index, ratio of CC50 for human A549 cells to MIC for fluconazole/ITC-susceptible Candida albicans ATCC MYA-2310; assay type: toxicity; conditions: read-out: Selectivity Index
# Candida albicans [9] = test: Antifungal activity against fluconazole/ITC-resistant Candida albicans ATCC 64124 measured after 48 hrs by CLSI M27-A3 protocol based method; assay type: functional; conditions: ATCC 64124, 48 h
# Candida albicans [10] = test: Antifungal activity against fluconazole/ITC-susceptible Candida albicans ATCC MYA-2876 measured after 48 hrs by CLSI M27-A3 protocol based method; assay type: functional; conditions: ATCC MYA-2876, 48 h
# [11] = Selectivity index, ratio of compound concentration showing <20 to <30% hemolysis in mouse RBC to MIC for Candida glabrata ATCC 2001; assay type: toxicity; conditions: mouse red blood cells (RBC), read-out: Selectivity Index
# [12] = Hemolytic activity in mouse RBC at 62.5 ug/ml after 1 hr relative to control; assay type: ADME, cell-based, Erythrocyte; conditions: red blood cells (erythrocytes), read-out: Activity
# [13] = Selectivity index, ratio of CC50 for human A549 cells to MIC for Aspergillus nidulans ATCC 38163; assay type: toxicity; conditions: read-out: Selectivity Index
# Enterococcus = test: Antibacterial activity against vancomycin-resistant Enterococcus; assay type: functional, organism-based
# Candida albicans [14] = test: Antifungal activity against fluconazole/ITC-resistant Candida albicans ATCC 10231 measured after 48 hrs by CLSI M27-A3 protocol based method; assay type: functional; conditions: ATCC 10231, 48 h
# Candida albicans [15] = test: Antifungal activity against fluconazole/ITC-resistant Candida albicans ATCC MYA-1003 measured after 48 hrs by CLSI M27-A3 protocol based method; assay type: functional; conditions: ATCC MYA-1003, 48 h
# Aspergillus flavus = test: Antifungal activity against Aspergillus flavus ATCC MYA-3631 measured after 48 hrs by CLSI M38-A2 protocol based method; assay type: functional; conditions: ATCC MYA-3631, 48 h
# A549 = test: Cytotoxicity against human A549 cells after 24 hrs by resazurin based assay; assay type: cell-based; conditions: a549, 24 h
# [16] = Selectivity index, ratio of compound concentration showing <20 to <30% hemolysis in mouse RBC to MIC for fluconazole/ITC-resistant Candida albicans ATCC MYA-1003; assay type: toxicity; conditions: mouse red blood cells (RBC), read-out: Selectivity Index
# Pichia kudriavzevii = test: Antifungal activity against Candida krusei ATCC 6258 measured after 48 hrs by CLSI M27-A3 protocol based method; assay type: functional; conditions: ATCC 6258, 48 h
# [17] = Selectivity index, ratio of CC50 for human A549 cells to MIC for fluconazole/ITC-resistant Candida albicans ATCC 10231; assay type: toxicity; conditions: read-out: Selectivity Index
# [18] = Selectivity index, ratio of compound concentration showing <20 to <30% hemolysis in mouse RBC to MIC for Aspergillus nidulans ATCC 38163; assay type: toxicity; conditions: mouse red blood cells (RBC), read-out: Selectivity Index
# Candida albicans [19] = test: Antifungal activity against fluconazole/ITC-resistant Candida albicans ATCC 90819 measured after 48 hrs by CLSI M27-A3 protocol based method; assay type: functional; conditions: ATCC 90819, 48 h
# Candida albicans [20] = test: Antifungal activity against fluconazole/ITC-susceptible Candida albicans ATCC MYA-2310 measured after 48 hrs by CLSI M27-A3 protocol based method; assay type: functional; conditions: ATCC MYA-2310, 48 h
# [21] = Hemolytic activity in mouse RBC at 3.9 ug/ml after 1 hr relative to control; assay type: ADME, cell-based, Erythrocyte; conditions: red blood cells (erythrocytes), read-out: Activity
# [22] = Selectivity index, ratio of CC50 for human A549 cells to MIC for Candida parapsilosis ATCC 22019; assay type: toxicity; conditions: read-out: Selectivity Index
# [23] = Selectivity index, ratio of CC50 for human A549 cells to MIC for Candida krusei ATCC 6258; assay type: toxicity; conditions: read-out: Selectivity Index
# [24] = Hemolytic activity in mouse RBC at […] ug/ml after 1 hr relative to control; assay type: ADME, cell-based, Erythrocyte; conditions: red blood cells (erythrocytes), read-out: Activity
# [25] = Selectivity index, ratio of compound concentration showing <20 to <30% hemolysis in mouse RBC to MIC for Aspergillus flavus ATCC MYA-3631; assay type: toxicity; conditions: mouse red blood cells (RBC), read-out: Selectivity Index
# [26] = Selectivity index, ratio of compound concentration showing <20 to <30% hemolysis in mouse RBC to MIC for fluconazole/ITC-resistant Candida albicans ATCC 64124; assay type: toxicity; conditions: red blood cells (erythrocytes), read-out: Selectivity Index
# Aspergillus terreus = test: Antifungal activity against Aspergillus terreus ATCC MYA-3633 measured after 48 hrs by CLSI M38-A2 protocol based method; assay type: functional; conditions: ATCC MYA-3633, 48 h
# [27] = Selectivity index, ratio of CC50 for human A549 cells to MIC for fluconazole/ITC-resistant Candida albicans ATCC 90819; assay type: toxicity; conditions: read-out: Selectivity Index
# [28] = Hemolytic activity in mouse RBC at […] after 1 hr relative to control; assay type: ADME, cell-based, Erythrocyte; conditions: red blood cells (erythrocytes), read-out: Activity; note: tested at 0.48 µg/mL
# [29] = Selectivity index, ratio of CC50 for human A549 cells to MIC for fluconazole/ITC-resistant Candida albicans ATCC 64124; assay type: toxicity; conditions: read-out: Selectivity Index
# [30] = Selectivity index, ratio of CC50 for human A549 cells to MIC for Candida glabrata ATCC 2001; assay type: toxicity; conditions: read-out: Selectivity Index
# [31] = Hemolytic activity in mouse RBC at 31.3 ug/ml after 1 hr relative to control; assay type: ADME, cell-based, Erythrocyte; conditions: red blood cells (erythrocytes), read-out: Activity
# [32] = Selectivity index, ratio of compound concentration showing <20 to <30% hemolysis in mouse RBC to MIC for fluconazole/ITC-susceptible Candida albicans ATCC MYA-2876; assay type: toxicity; conditions: red blood cells (erythrocytes), read-out: Selectivity Index
# BEAS-2B = test: Cytotoxicity against human BEAS2B cells after 24 hrs by resazurin based assay; assay type: cell-based
# [33] = Selectivity index, ratio of CC50 for human A549 cells to MIC for fluconazole/ITC-resistant Candida albicans ATCC MYA-1003; assay type: toxicity; conditions: read-out: Selectivity Index
# [34] = Selectivity index, ratio of compound concentration showing <20 to <30% hemolysis in mouse RBC to MIC for fluconazole/ITC-resistant Candida albicans ATCC 90819; assay type: toxicity; conditions: red blood cells (erythrocytes), read-out: Selectivity Index
# [35] = Hemolytic activity in mouse RBC at 7.8 ug/ml after 1 hr relative to control; assay type: ADME, cell-based, Erythrocyte; conditions: red blood cells (erythrocytes), read-out: Activity
# Aspergillus nidulans = test: Antifungal activity against Aspergillus nidulans ATCC 38163 measured after 48 hrs by CLSI M38-A2 protocol based method; assay type: functional; conditions: ATCC 38163, 48 h
# Nakaseomyces glabratus = test: Antifungal activity against Candida glabrata ATCC 2001 measured after 48 hrs by CLSI M27-A3 protocol based method; assay type: functional; conditions: CBS 138, 48 h
# Staphylococcus aureus = test: Antibacterial activity against methicillin-resistant Staphylococcus aureus; assay type: functional, organism-based
# Candida parapsilosis = test: Antifungal activity against Candida parapsilosis ATCC 22019 measured after 48 hrs by CLSI M27-A3 protocol based method; assay type: functional; conditions: Lodderomyces parapsilosis, ATCC 22019, 48 h
# [36] = Selectivity index, ratio of compound concentration showing <20 to <30% hemolysis in mouse RBC to MIC for fluconazole/ITC-resistant Candida albicans ATCC 10231; assay type: toxicity; conditions: red blood cells (erythrocytes), read-out: Selectivity Index
# [37] = Selectivity index, ratio of compound concentration showing <20 to <30% hemolysis in mouse RBC to MIC for Aspergillus terreus ATCC MYA-3633; assay type: toxicity; conditions: mouse red blood cells (RBC), read-out: Selectivity Index
# [38] = Selectivity index, ratio of compound concentration showing <20 to <30% hemolysis in mouse RBC to MIC for Candida parapsilosis ATCC 22019; assay type: toxicity; conditions: mouse red blood cells (RBC), read-out: Selectivity Index
# Listeria monocytogenes = test: Antibacterial activity against Listeria monocytogenes; assay type: functional, organism-based
# [39] = Selectivity index, ratio of CC50 for human A549 cells to MIC for fluconazole/ITC-resistant Candida albicans ATCC MYA-1237; assay type: toxicity; conditions: read-out: Selectivity Index
structure (smiles),measurement,setting,value
Fc1ccc(N/N=C/c2ccc(-c3ccc(/C=N/Nc4ccc(F)cc4)cc3)cc2)cc1,selectivity ratio,[1],1 to 32
same,selectivity ratio,[2],0.6
same,selectivity ratio,[3],1 to 32
same,"hemolysis at 1 h, 1.95 ug/ml",[4],1.1%
same,selectivity ratio,[5],2.3
same,selectivity ratio,[6],1 to 32
same,MIC,Candida albicans [7],7.8 µg/mL
same,selectivity ratio,[8],1.1
same,MIC,Candida albicans [9],15.6 µg/mL
same,MIC,Candida albicans [10],7.8 µg/mL
same,selectivity ratio,[11],1 to 32
same,"hemolysis at 1 h, 62.5 ug/ml",[12],28.3%
same,selectivity ratio,[13],2.3
same,Activity,Enterococcus,inactive
same,MIC,Candida albicans [14],7.8 µg/mL
same,MIC,Candida albicans [15],7.8 µg/mL
same,MIC,Aspergillus flavus,7.8 µg/mL
same,CC50,A549,17.7 µg/mL
same,selectivity ratio,[16],1 to 32
same,MIC,Pichia kudriavzevii,1.95 µg/mL
same,selectivity ratio,[17],2.3
same,selectivity ratio,[18],1 to 32
same,MIC,Candida albicans [19],31.3 µg/mL
same,MIC,Candida albicans [20],15.6 µg/mL
same,"hemolysis at 1 h, 3.9 ug/ml",[21],0.7%
same,selectivity ratio,[22],0.6
same,selectivity ratio,[23],9.1
same,"hemolysis at 1 h, 15.6 ug/ml",[24]; at 15.6 µg/mL,9%
same,"hemolysis at 1 h, 0.975 ug/ml",[24],0%
same,selectivity ratio,[25],1 to 32
same,selectivity ratio,[26],1 to 32
same,MIC,Aspergillus terreus,> 31.3 µg/mL
same,selectivity ratio,[27],0.6
same,"hemolysis at 1 h, […]",[28],0%
same,selectivity ratio,[29],1.1
same,selectivity ratio,[30],1.1
same,"hemolysis at 1 h, 31.3 ug/ml",[31],9.6%
same,selectivity ratio,[32],1 to 32
same,CC50,BEAS-2B,8.5 µg/mL
same,selectivity ratio,[33],2.3
same,selectivity ratio,[34],1 to 32
same,"hemolysis at 1 h, 7.8 ug/ml",[35],3.2%
same,MIC,Aspergillus nidulans,7.8 µg/mL
same,MIC,Nakaseomyces glabratus,15.6 µg/mL
same,Activity,Staphylococcus aureus,inactive
same,MIC,Candida parapsilosis,31.3 µg/mL
same,selectivity ratio,[36],1 to 32
same,selectivity ratio,[37],1 to 32
same,selectivity ratio,[38],1 to 32
same,Activity,Listeria monocytogenes,inactive
same,selectivity ratio,[39],2.3

# — ChEMBL document CHEMBL4411307, “N,N'-diaryl-bishydrazones in a biphenyl platform: Broad spectrum antifungal agents” (Eur J Med Chem, 2019)
